Drawing on US8716292B2, “Riminophenazines with 2-(heteroaryl)amino substituents and their anti-microbial activity” (priority 2010, dated 2014), this text covers MIC for 14 compounds.

Converted amounts (≈) assume the structure as drawn.

The test system of the assay is Mycobacterium tuberculosis H37Rv strains. The assay is described as follows: In vitro assay for antimicrobial susceptibility (microplate Alamar blue MIC). The following applies: Mycobacterium tuberculosis, H37RV, in vitro, Mycobacterium tuberculosis H37Rv strains; read-out: MIC (μg/mL) against H37Rv. The format is cell-based.
For `CC(C)/N=c1\cc2n(-c3ccc(F)cc3)c3ccccc3nc-2cc1Nc1cccnc1` [TBI-679, 5-(4-Fluorophenyl)-3-(1-methylethyl)imino-2-(3-pyridyl)amino-3,5-dihydrophenazine], the MIC is 0.03 µg/mL (≈ 0.0708 µM).
To `Fc1ccc(-n2c3c/c(=N\CCN4CCOCC4)c(Nc4cccnc4)cc-3nc3ccccc32)cc1` [TBI-680, 5-(4-Fluorophenyl)-3-(2-morpholinoethyl)imino-2-(3-pyridyl)amino-3,5-dihydrophenazine] belongs 0.5 µg/mL (≈ 1.01 µM); to `Fc1ccc(-n2c3c/c(=N\C4CCOCC4)c(Nc4cccnc4)cc-3nc3ccccc32)cc1` [TBI-681, 5-(4-Fluorophenyl)-3-(4-tetrahydropyranyl)imino-2-(3-pyridyl)amino-3,5-dihydrophenazine], 0.06 µg/mL (≈ 0.129 µM).
Take `CN1CCC(/N=c2\cc3n(-c4ccc(F)cc4)c4ccccc4nc-3cc2Nc2cccnc2)CC1` [TBI-682]: the MIC came out at 0.25 µg/mL (≈ 0.522 µM).
`CC(C)CN1CCC(/N=c2\cc3n(-c4ccc(F)cc4)c4ccccc4nc-3cc2Nc2cccnc2)CC1` [TBI-683, 5-(4-Fluorophenyl)-3-(N-isobutyl-4-piperidyl)imino-2-(3-pyridyl)amino-3,5-dihydrophenazine]: the MIC turned out to be 0.125 µg/mL (≈ 0.24 µM).
Regarding `Fc1ccc(-n2c3c/c(=N\C4CCN(C5CCCC5)CC4)c(Nc4cccnc4)cc-3nc3ccccc32)cc1` [TBI-684, 5-(4-Fluorophenyl)-3-(N-cyclopentyl-4-piperidyl)imino-2-(3-pyridyl)amino-3,5-dihydrophenazine], the MIC stood at 0.5 µg/mL (≈ 0.939 µM).
To `COC1CCC(/N=c2\cc3n(-c4ccc(F)cc4)c4ccccc4nc-3cc2Nc2cccnc2)CC1` (centres unmarked) [TBI-685, 5-(4-Fluorophenyl)-3-(4-methoxycyclohexyl)imino-2-(3-pyridyl)amino-3,5-dihydrophenazine] belongs 0.125 µg/mL (≈ 0.253 µM).
Turning to `FC(F)(F)c1ccc(-n2c3c/c(=N\C4CCOCC4)c(Nc4cccnc4)cc-3nc3ccccc32)cc1` [TBI-686, 5-(4-Trifluoromethylphenyl)-3-(4-tetrahydropyranyl)imino-2-(3-pyridyl)amino-3,5-dihydrophenazine], the MIC worked out at 0.125 µg/mL (≈ 0.242 µM).
With `CC(C)CN1CCC(/N=c2\cc3n(-c4ccc(C(F)(F)F)cc4)c4ccccc4nc-3cc2Nc2cccnc2)CC1` [TBI-687, 5-(4-Trifluoromethylphenyl)-3-(N-isobutyl-4-piperidyl)imino-2-(3-pyridyl)amino-3,5-dihydrophenazine] the figure was 0.06 µg/mL (≈ 0.105 µM); with `CN1CCC(/N=c2\cc3n(-c4ccc(C(F)(F)F)cc4)c4ccccc4nc-3cc2Nc2cccnc2)CC1` [TBI-689, 5-(4-Trifluoromethylphenyl)-3-(N-methyl-4-piperidyl)imino-2-(3-pyridyl)amino-3,5-dihydrophenazine], 0.125 µg/mL (≈ 0.236 µM).
As to `FC(F)(F)c1ccc(-n2c3c/c(=N\CCN4CCOCC4)c(Nc4cccnc4)cc-3nc3ccccc32)cc1` [TBI-690, 5-(4-Trifluoromethylphenyl)-3-(2-morpholinoethyl)imino-2-(3-pyridyl)amino-3,5-dihydrophenazine], the MIC stood at 0.125 µg/mL (≈ 0.23 µM).
On to `FC(F)(F)c1ccc(-n2c3c/c(=N\C4CCN(C5CCCC5)CC4)c(Nc4cccnc4)cc-3nc3ccccc32)cc1` [TBI-691, 5-(4-Trifluoromethylphenyl)-3-(N-cyclopentyl-4-piperidyl)imino-2-(3-pyridyl)amino-3,5-dihydrophenazine], for which the MIC worked out at 0.06 µg/mL (≈ 0.103 µM).
To `Cc1ccc(Nc2cc3nc4ccccc4n(-c4ccc(F)cc4)c-3c/c2=N\C(C)C)cn1` [TBI-692, 5-(4-Fluorophenyl)-3-(1-methylethyl)imino-2-(6-methyl-3-pyridyl)amino-3,5-dihydrophenazine] belongs 0.06 µg/mL (≈ 0.137 µM).
Regarding `Cc1ncccc1Nc1cc2nc3ccccc3n(-c3ccc(F)cc3)c-2c/c1=N\C(C)C` [TBI-693, 5-(4-Fluorophenyl)-3-(1-methylethyl)imino-2-(2-methyl-3-pyridyl)amino-3,5-dihydrophenazine], the MIC amounted to 0.03 µg/mL (≈ 0.0686 µM).
